US20090252816A1, “Inhalable Gaseous Medicament Based On Xenon And Nitrous Oxide” (AIR LIQUIDE SANTE (INRTERNATIONAL), priority 2003, published 2009)

How the values were obtained:
[1] = tested on: sensitization to d-amphetamine; test: d-amphetamine sensitization protocol, locomotor activity in actimetry cages; assay type: in vivo, rat; settings: for blocking of the sensitization process (locomotor activity in d-amphetamine test on D7): remainder oxygen, 3 h after each d-amphetamine injection D1-D3; for concentration necessary to block the sensitization process: d-amphetamine sensitization
Protocol: Male Sprague-Dawley rats weighing about 250 g were used in the experiments.
(§1) 15 groups of animals (of 7 or 8 animals each) were used, including 10 groups during the actual sensitization studies and 5 other groups during the histological studies of the neurons of the posterior and retrosplenial cingulate cortices.
The animals were injected intraperitoneally (i.p.) for 3 consecutive days from D1 to D3 with d-amphetamine (Amph; 1 mg/ml/kg) or, depending on the case, with a saline solution (1 ml/kg) for the control animals.
After each injection, the rats were immediately placed for 3 hours in a closed chamber, 100 liters in volume, flushed in dynamic regime with a constant flow rate of 5 l.min^−1, either with air (group 1: saline; group 2: Amph), or with 50% by volume of nitrous oxide (group 3: saline; group 4: Amph) or 75% (group 5: saline; group 6: Amph), or with 50% by volume of xenon (group 7: saline; group 8: Amph) or 75% (group 9: saline, group 10: Amph); the rest of the mixtures (remainder to 100%) being oxygen.
The locomotor activity of the animals of groups 1 to 10 was evaluated on D6, after an i.p. injection of a saline solution (1 ml/kg), and on D7 after an i.p. injection of d-amphetamine (1 mg/ml/kg). The locomotor activity of the animals in response to these injections was recorded using actimetry cages with photoelectric cells (Imétronic, Pessac. France).
The results obtained, given in the attached FIGS. 1 and 2, are expressed as the mean±standard error. The comparison of the groups was performed by means of nonparametric tests: Kruskall-Wallis analysis of variance, followed in the event of a significant result by the Mann-Whitney U test.

[2] = tested on: posterior and retrosplenial cingulate cortices; test: histological study of neurons of the posterior and retrosplenial cingulate cortices after repeated gas exposure; assay type: in vivo, rat; settings: for histological findings in posterior and retrosplenial cingulate cortices (neurotoxic effect): repeated exposure for 3 consecutive days
Protocol: as §1
In order to identify the possible neurotoxic potential of repeated exposure (3 hours per day […]) to nitrous oxide or to xenon on the posterior and retrosplenial cingulate cortices, 5 additional groups of animals were pretreated, according to a protocol identical to that defined above, by administration of a saline solution, and then exposed either to air (group 11) or to 50% or 75% nitrous oxide (groups 12 and 13) or to 50% or 75% xenon (groups 14 and 15).
To do this, after treatment, the animals were sacrificed on D8 by decapitation under general anesthesia with halothane, and the cranium was then immediately placed in a paraformaldehyde solution for one week. The brain was removed, coated with paraffin and sectioned into frontal slices of 4 μm mounted on gelatinized slides and stained with a hemalun-eosin-saffron solution. The posterior and retrosplenial cingulate cortices were analyzed using an optical microscope (×400).

[3] = tested on: dopamine release in the nucleus accumbens septi; test: dopamine release in slices of nucleus accumbens septi by differential pulse voltammetry; assay type: cell-based, rat
Protocol: In addition, the preparation of the slices of nucleus accumbens septi was performed as follows. The animals were decapitated under mild anesthesia with halothane and the brain was then rapidly removed. Frontal sections of 300 μm, corresponding to an anteriority of +0.70/1.20 mm (according to Bregma, Paxinos and Watson, 1998) were taken using a chopper (Mickie Laboratory Engineering Company, Gomshall, Surrey, UK). The brain slices were placed for recovery in a buffered saline solution with a temperature of 3-4° C. for at least 1 hour before use for neurochemical study.
The measurement of the dopamine release was performed by the technique of normal differential pulse voltammetry using a single-fiber carbon electrode 10 μm in diameter and 250 μm long (CFN10-250; World Precision Instruments, Aston, Stevenage, Hertfordshire, UK). The electrochemical treatment enabling this type of electrode to be made sensitive to dopamine consisted in applying a continuous current of −1.5 V into a phosphate-buffered saline solution for 20 seconds, followed by a triangular current of +2.6 V also for 20 seconds on the working electrode (Brazell et al., 1987). Under these conditions, the dopaminergic signal appears at a potential of +100 mV.
The rat brain slices were then placed in an organ tank and infused with artificial cerebrospinal fluid having the composition: NaCl 118 mM, MgCl2 1.18 mM, KCl 4.9 mM, NaH2PO4 1.25 mM, CaCl2 1.25 mM, NaHCO3 3.6 mM, d-glucose 10 mM, HEPES 30 mM, pH 7.4, the temperature of which was maintained at 34±1° C. using a temperature controller (Delta 4 Culture Dish Controller, Bioptechs, Butler, Pa., USA). The electrode was placed under microscopic control (microscope EFN 600, Nikon, Paris, France), 100 μm from the anterior commissure, using an optical micrometer incorporated into the microscope, and then fully descended into the nucleus accumbens septi, at an angle of 45°, and connected to the Biopulse polarograph set in normal differential pulse voltammetry mode with the following parameters: scanning potential −150+350 mV; scanning time 0.4 s, scanning amplitude 4 mV, for a scanning speed of 10 mV.s^−1, 40 ms measuring pulse; 70 ms measuring prepulse; 30 mV measuring amplitude.
The dopaminergic hyperstimulation was induced by adding d-amphetamine to the infusion liquid. Medical air, nitrous oxide or xenon was dissolved, to saturation, before use in the infusion liquid, the pH of which was readjusted to 7.4.

[4] = toxicity threshold of xenon stated for man; settings: in man
[5] = tested on: N-methyl-D-aspartate glutamatergic receptors; settings: in vitro; Franks et al. 1998, Jevtovic-Todorovic et al. 1998; cited from earlier work
[6] = tested on: glutamatergic receptors of AMPA type; settings: Yakamura and Harris, 2000; cited from earlier work
weaning from alcohol = settings: Lichtigfeld and Gillman 1989; cited from earlier work
[7] = gas at 50 vol % or 75 vol % (summary statement)

Row | Compound | blocking of the sensitization process (locomotor activity in d-amphetamine test on D7) ([1]; gas at 50 vol %, rats) | blocking of the sensitization process (locomotor activity in d-amphetamine test on D7) ([1]; gas at 75 vol %, rats) | response to d-amphetamine on D7 in animals pretreated with saline solution ([1]; gas at 75 vol %, versus air or xenon at 50 vol %) | concentration necessary to block the sensitization process ([1]; rats) | histological findings in posterior and retrosplenial cingulate cortices (neurotoxic effect) ([2]; gas at 50 vol %) | histological findings in posterior and retrosplenial cingulate cortices (neurotoxic effect) ([2]; gas at 75 vol %) | toxicity threshold ([2]; in rats) | increase in dopamine release induced with d-amphetamine ([3]; gas at 50% by volume in the infusion liquid, d-amphetamine 10^-5 M) | increase in dopamine release induced with d-amphetamine [3, 7] | toxicity threshold [4] | antagonist affinity for NMDA receptors [5] | effect on glutamatergic receptors of AMPA type [6] | locomotor activity in d-amphetamine test on D7, animals pretreated with d-amphetamine versus saline ([1]; d-amphetamine 1 mg/ml/kg i.p. D1-D3, air) | dopamine signal relative to the measured basal signal ([3]; d-amphetamine at 10^-5 M in infusion liquid) | locomotor activity in response to the saline test on D6 (long-term sedative effect) ([1]; gas at 50 vol % or 75 vol %, rats) | gas effect on acute d-amphetamine test at D7 in rats pretreated with saline solution ([1]; saline-pretreated rats, nitrous oxide exposure D1-D3) | increase in dopamine release induced with d-amphetamine ([3]; gas at 75% by volume in the infusion liquid, d-amphetamine 10^-5 M) | effect on weaning from alcohol (weaning from alcohol)
1 | [Xe] [xenon] | blocking of the sensitization | blocking of the sensitization | significant increase | 50 vol % | No similar effect | generalized cytoplasmic clarification | about 75% | significantly reduced | block the increase | about 60% | low affinity | no effect |  |  |  |  |  | 
2 | C[C@H](N)Cc1ccccc1.C[C@H](N)Cc1ccccc1.O=S(=O)(O)O [d-amphetamine, d-amphetamine sulfate] |  |  |  |  |  |  |  |  |  |  |  |  | significantly higher | significant increase |  |  |  | 
3 | [N-]=[N+]=O [nitrous oxide] | partial blocking | significant blocking |  | 75 vol % |  | No similar effect |  |  | block the increase |  | low affinity | no effect |  |  | no significant difference | no “gas” effect | significantly reduced | slightly better than the placebo effect
